Data published in BindingDB's records for doi:10.1016/j.bmcl.2006.05.060 (University of Kentucky, 2006).

Assays:
[1] = Displacement of radiolabeled NalBzOH from kappa3 opioid receptor in Hartley guinea pig brain
[2] = Displacement of radiolabeled DPDPE-Cl from delta opioid receptor in Hartley guinea pig brain

Row | SMILES | Ki [1] | Ki [2]
1 | COc1ccc2c3c1O[C@H]1[C@@H](OS(=O)(=O)O)CC[C@H]4[C@@H](C2)N(C)CC[C@@]341 [DC6S] | 760 nM | 1150 nM
2 | CC(=O)Oc1ccc2c3c1O[C@H]1[C@@H](OS(=O)(=O)[O-])C=C[C@H]4[C@@H](C2)[N+](C)(C)CC[C@@]341 [MM3A6S] | 400 nM | 842 nM
3 | C[C@@H](NC(=O)[C@@H](N)Cc1ccc(O)cc1)C(=O)NCC(=O)N(C)[C@@H](Cc1ccccc1)C(=O)NCCO [[tyrosyl-3,5-3H(N)]-D-Ala2-Mephe4-glyol5-enkephalin] | 27 nM | –
4 | CC1(C)SSC(C)(C)[C@@H](NC(=O)[C@@H](N)Cc2ccc(O)cc2)C(=O)NCC(=O)N[C@@H](Cc2ccc(Cl)cc2)C(=O)N[C@H]1C(=O)O [(4S,7S,13S)-13-[(S)-2-Amino-3-(4-hydroxy-phenyl)-propionylamino]-7-(4-chloro-benzyl)-3,3,14,14-tetramethyl-6,9,12-trioxo-1,2-dithia-5,8,11-triaza-cyclotetradecane-4-carboxylic acid] | 1030 nM | –
5 | CN1CC[C@]23c4c5ccc(O)c4O[C@H]2[C@@H](OS(=O)(=O)O)C=C[C@H]3[C@H]1C5 [M6S] | 6.3 nM | 18 nM
6 | CC(C)C(=O)Oc1ccc2c3c1O[C@H]1[C@@H](OS(=O)(=O)O)C=C[C@H]4[C@@H](C2)N(C)CC[C@@]341 [M3IBu6S] | 266 nM | 584 nM
7 | CN1CC[C@]23c4c5ccc(OC(=O)c6ccccc6)c4O[C@H]2[C@@H](OS(=O)(=O)O)CC[C@H]3[C@H]1C5 [DM3B6S] | – | 1600 nM
8 | CC(=O)Oc1ccc2c3c1O[C@H]1[C@@H](OS(=O)(=O)O)CC[C@H]4[C@@H](C2)N(C)CC[C@@]341 [DM3A6S] | – | 325 nM
9 | CN1CC[C@]23c4c5ccc(OS(=O)(=O)O)c4O[C@H]2[C@@H](O)C=C[C@H]3[C@H]1C5 [M3S] | 1690 nM | > 10000 nM
10 | CN1CC[C@]23c4c5ccc(OC(=O)C(C)(C)C)c4O[C@H]2[C@@H](OS(=O)(=O)O)C=C[C@H]3[C@H]1C5 [M3P6S] | 11 nM | 15 nM
11 | CN1CC[C@]23c4c5ccc(OC(=O)c6ccccc6)c4O[C@H]2[C@@H](OS(=O)(=O)O)C=C[C@H]3[C@H]1C5 [M3B6S] | 513 nM | 600 nM
12 | COc1ccc2c3c1O[C@H]1[C@@H](OS(=O)(=O)O)C=C[C@H]4[C@@H](C2)N(C)CC[C@@]341 [C6S] | 455 nM | 414 nM
13 | C[N+]1(C)CC[C@]23c4c5ccc(OC(=O)c6ccccc6)c4O[C@H]2[C@@H](OS(=O)(=O)[O-])C=C[C@H]3[C@H]1C5 [MM3B6S] | > 10000 nM | > 10000 nM
14 | CC(=O)Oc1ccc2c3c1O[C@H]1[C@@H](OS(=O)(=O)O)C=C[C@H]4[C@@H](C2)N(C)CC[C@@]341 [M3A6S] | 5.5 nM | 154 nM
15 | CN1CC[C@]23c4c5ccc(O)c4O[C@H]2[C@@H](OS(=O)(=O)O)CC[C@H]3[C@H]1C5 [DM6S] | 7 nM | 19 nM
16 | CSCC[C@H](NC(=O)[C@H](Cc1ccccc1)NC(=O)CNC(=O)CNC(=O)[C@@H](N)Cc1ccc(O)cc1)C(=O)O [2-[(S)-2-(2-{2-[(S)-2-Amino-3-(4-hydroxy-phenyl)-propionylamino]-acetylamino}-acetylamino)-1-oxo-3-phenyl-propylamino]-4-methylsulfanyl-butyric acid] | 277 nM | –
17 | CCC(=O)Oc1ccc2c3c1O[C@H]1[C@@H](OS(=O)(=O)O)C=C[C@H]4[C@@H](C2)N(C)CC[C@@]341 [M3Pr6S] | 20 nM | 40 nM
18 | C=CCN1CCC23c4c5ccc(O)c4O[C@@H]2C(=NNC(=O)c2ccccc2)CCC3(O)C1C5 (stereo not given in full) | 0.3 nM | –
